# In paper PMC12328218 (Nature, 2025):
# Read-outs that look alike come from different tables or passages of the source.
# How the values were obtained:
# Assay type in all cases: cell-based, Mycobacterium tuberculosis
# [1] = test system: M. tuberculosis H37Rv CRISPRi PurF low knockdown strain; assay: microbe, parasite or virus in culture
# [2] = test system: JNJ-6640-treated M. tuberculosis
# [3] = test system: M. tuberculosis CRISPRi purF knockdown strains
structure (smiles),measurement,setting,value
COc1nc2ccc(Br)cc2cc1[C@@H](c1ccccc1)[C@@](O)(CCN(C)C)c1cccc2ccccc12 [Bedaquiline],EC50,[1],44 nM
same,change in susceptibility following purF transcript knockdown,[1],no change
same,EC50,"[1]; Mycobacterium tuberculosis, H37RV",61 nM
O=c1[nH]cnc2nc[nH]c12 [Hypoxanthine],effect of nucleobase addition on JNJ-6640-treated M. tuberculosis,[2],rescue
same,rescue of JNJ-6640 activity,[2],rescues JNJ-6640 activity
same,concentration partially rescuing inhibition of de novo purine biosynthesis,[3],exceeding 0.1 mM
Nc1nc2nc[nH]c2c(=O)[nH]1 [Guanine],effect of nucleobase addition on JNJ-6640-treated M. tuberculosis,[2],no substantial effect
O=c1[nH]c(=O)c2nc[nH]c2[nH]1 [Xanthine],effect of nucleobase addition on JNJ-6640-treated M. tuberculosis,[2],no substantial effect
Nc1ncnc2[nH]cnc12 [Adenine],effect of nucleobase addition on JNJ-6640-treated M. tuberculosis,[2],no substantial effect
same,effect on rescue of purF knockdown,[3],limited effect
